According to patent publication US11020395B2, “Cycloalkyl substituted triazole compounds as agonists of the APJ receptor” (AMGEN INC., priority 2016, dated 2021):

The molecules below were run against human APJ receptor (Homo sapiens (Human), UniProt P35414) (assay: [35S]GTPγS binding assay on membranes from CHO cells stably expressing human APJ receptor). Settings: [35S]GTPγS SPA, read-out: Activity hAPJ SPA EC50 IP.
Sequence of human APJ receptor (P35414 whole entry): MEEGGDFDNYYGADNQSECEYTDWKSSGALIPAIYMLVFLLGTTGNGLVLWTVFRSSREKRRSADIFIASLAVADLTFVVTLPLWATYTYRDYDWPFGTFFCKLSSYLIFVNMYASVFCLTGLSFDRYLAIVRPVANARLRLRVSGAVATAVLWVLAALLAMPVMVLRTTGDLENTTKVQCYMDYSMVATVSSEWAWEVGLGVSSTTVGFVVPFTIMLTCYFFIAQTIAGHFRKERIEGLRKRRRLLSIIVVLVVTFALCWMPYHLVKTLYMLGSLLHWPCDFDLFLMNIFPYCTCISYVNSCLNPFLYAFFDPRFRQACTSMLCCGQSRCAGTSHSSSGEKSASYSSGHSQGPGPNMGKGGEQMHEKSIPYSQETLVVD
Type: biochemical
Protocol: [^35S]GTPγS Binding The human APJ receptor was cloned by polymerase chain reaction and the gene encoding the receptor was subcloned in pFLAG-CMV™-3 expression vector (Sigma, Saint Louis, Mo. USA) in-house at Amgen. A GTPγS binding assay was performed on membranes prepared from CHO cells stably expressing human APJ receptor. The optimum experimental conditions for the concentrations of GDP, MgCl2, and NaCl in the assay buffer were initially determined. […] Incubation was at RT for 90 min and the microplate was read using a ViewLux™ ultra HTS Microplate Imager (PerkinElmer, Inc.). All the results presented are means of several independent experiments and analyzed by non-linear regression methods using the commercially available program Prism (GraphPad, San Diego, Calif.) providing the EC50 values detailed in Table 25.
With COc1ncnc(OC)c1-n1c(NS(=O)(=O)[C@@H](C)[C@H](OC)c2ncc(Cl)cn2)nnc1[C@H]1CC1(F)F (single isomer, unassigned) [Example 101.0, (1R,2S)-1-(5-chloropyrimidin-2-yl)-N-(5-((R)-2,2-difluorocyclopropyl)-4-(4,6-dimethoxypyrimidin-5-yl)-4H-1,2,4-triazol-3-yl)-1-methoxypropane-2-sulfonamide or (1R,2S)-1-(5-chloropyrimidin-2-yl)-N-(5-((S)-2,2-difluorocyclopropyl)-4-(4,6-dimethoxypyrimidin-5-yl)-4H-1,2,4-triazol-3-yl)-1-methoxypropane-2-sulfonamide] the EC50 was 60 nM.
COc1cccc(OC)c1-n1c(NS(=O)(=O)[C@@H](C)[C@H](OC)c2cnc(C)cn2)nnc1C1CCC1 [Example 138.0] showed an EC50 of 27 nM.
Work on COc1cccc(OC)c1-n1c(NS(=O)(=O)[C@@H](C)[C@H](C)c2ncc(C)cn2)nnc1[C@H]1C[C@H](Cl)C1 (single isomer, unassigned) [Example 194.0, (2S,3R)-N-(5-((1r,3S)-3-chlorocyclobutyl)-4-(2,6-dimethoxyphenyl)-4H-1,2,4-triazol-3-yl)-3-(5-methylpyrimidin-2-yl)butane-2-sulfonamide or (2S,3R)-N-(5-((1s,3R)-3-chlorocyclobutyl)-4-(2,6-dimethoxyphenyl)-4H-1,2,4-triazol-3-yl)-3-(5-methylpyrimidin-2-yl)butane-2-sulfonamide] yielded an EC50 of 2.5 nM.
For COCC1(n2c(NS(=O)(=O)[C@@H](C)[C@H](OC)c3ncc(Cl)cn3)nnc2[C@H]2C[C@H](CO)C2)CC1 (single isomer, unassigned) [Example 132.0, (1R,2S)-1-(5-chloro-2-pyrimidinyl)-N-(5-(trans-3-(hydroxymethyl)cyclobutyl)-4-(1-(methoxymethyl)cyclopropyl)-4H-1,2,4-triazol-3-yl)-1-methoxy-2-propanesulfonamide or (1R,2S)-1-(5-chloro-2-pyrimidinyl)-N-(5-(cis-3-(hydroxymethyl)cyclobutyl)-4-(1-(methoxymethyl)cyclopropyl)-4H-1,2,4-triazol-3-yl)-1-methoxy-2-propanesulfonamide], the EC50 was 1270 nM.
Work on COc1ncnc(OC)c1-n1c(NS(=O)(=O)[C@@H](C)[C@H](OC)c2ncc(Cl)cn2)nnc1[C@H]1C[C@@H](F)C1 (single isomer, unassigned) [Example 163.0, (1R,2S)-1-(5-chloropyrimidin-2-yl)-N-(4-(4,6-dimethoxypyrimidin-5-yl)-5-((1s,3R)-3-fluorocyclobutyl)-4H-1,2,4-triazol-3-yl)-1-methoxypropane-2-sulfonamide or (1R,2S)-1-(5-chloropyrimidin-2-yl)-N-(4-(4,6-dimethoxypyrimidin-5-yl)-5-((1r,3S)-3-fluorocyclobutyl)-4H-1,2,4-triazol-3-yl)-1-methoxypropane-2-sulfonamide] yielded an EC50 of 46 nM.
Molecule COc1ncnc(OC)c1-n1c(NS(=O)(=O)[C@@H](C)[C@H](OC)c2ncc(Cl)cn2)nnc1[C@@H]1CC[C@@H]1F (single isomer, unassigned) [Example 180.0, (1R,2S)-1-(5-chloropyrimidin-2-yl)-N-(4-(4,6-dimethoxypyrimidin-5-yl)-5-((1S,2S)-2-fluorocyclobutyl)-4H-1,2,4-triazol-3-yl)-1-methoxypropane-2-sulfonamide or (1R,2S)-1-(5-chloropyrimidin-2-yl)-N-(4-(4,6-dimethoxypyrimidin-5-yl)-5-((1R,2R)-2-fluorocyclobutyl)-4H-1,2,4-triazol-3-yl)-1-methoxypropane-2-sulfonamide] has an EC50 of 24 nM.
For COc1ncnc(OC)c1-n1c(NS(=O)(=O)[C@@H](C)[C@H](C)c2ncc(C)cn2)nnc1C1CCCC1 [Example 18.0, (2S,3R)-N-(5-cyclopentyl-4-(4,6-dimethoxypyrimidin-5-yl)-4H-1,2,4-triazol-3-yl)-3-(5-methylpyrimidin-2-yl)butane-2-sulfonamide], the EC50 was 2.1 nM.
With COc1cccc(OC)c1-n1c(NS(=O)(=O)[C@@H](C)[C@@H](OC(C)C)c2cnc(C)cn2)nnc1C1CCC1 [Example 140.0] the EC50 was 31 nM.
COc1cccc(OC)c1-n1c(NS(=O)(=O)[C@@H](C)[C@H](C)c2cnc(C)cn2)nnc1C1CCC1 [Example 139.0] showed an EC50 of 29 nM.
COc1ncnc(OC)c1-n1c(NS(=O)(=O)[C@@H](C)[C@H](OC)c2ncc(Cl)cn2)nnc1[C@H]1CC[C@@H]1C (single isomer, unassigned) [Example 187.0, (1R,2S)-1-(5-chloropyrimidin-2-yl)-N-(4-(4,6-dimethoxypyrimidin-5-yl)-5-((1S,2S)-2-methylcyclobutyl)-4H-1,2,4-triazol-3-yl)-1-methoxypropane-2-sulfonamide or (1R,2S)-1-(5-chloropyrimidin-2-yl)-N-(4-(4,6-dimethoxypyrimidin-5-yl)-5-((1R,2R)-2-methylcyclobutyl)-4H-1,2,4-triazol-3-yl)-1-methoxypropane-2-sulfonamide] showed an EC50 of 8.8 nM.
For COc1cccc(OC)c1-n1c(NS(=O)(=O)[C@@H](C)[C@@H](OC(C)C)c2ncc(C)cn2)nnc1C1CCC1 [Example 142.0], the EC50 was 5.1 nM.
In the case of COc1ncnc(OC)c1-n1c(NS(=O)(=O)[C@@H](C)[C@@H](OC(C)C)c2ncc(C)cn2)nnc1C1CCC1 [Example 83.0, (1S,2S)-N-(5-cyclobutyl-4-(4,6-dimethoxy-5-pyrimidinyl)-4H-1,2,4-triazol-3-yl)-1-(5-methyl-2-pyrimidinyl)-1-(2-propanyloxy)-2-propanesulfonamide], the EC50 is reported as 6 nM.
Molecule “(1R,2S)-1-(5-chloropyrimidin-2-yl)-N-(4-(4,6-dimethoxypyrimidin-5-yl)-5-((R)-6-oxaspiro[2.5]octan-1-yl)-4H-1,2,4-triazol-3-yl)-1-methoxypropane-2-sulfonamide or (1R,2S)-1-(5-chloropyrimidin-2-yl)-N-(4-(4,6-dimethoxypyrimidin-5-yl)-5-((S)-6-oxaspiro[2.5]octan-1-yl)-4H-1,2,4-triazol-3-yl)-1-methoxypropane-2-sulfonamide [Example 103.0]” has an EC50 of 39 nM.
With COc1ncnc(OC)c1-n1c(NS(=O)(=O)[C@@H](C)[C@H](OC)c2ncc(Cl)cn2)nnc1[C@H]1CC[C@@H](C(F)F)CC1 (single isomer, unassigned) [Example 145.0, (1R,2S)-1-(5-chloro-2-pyrimidinyl)-N-(5-(cis-4-(difluoromethyl)cyclohexyl)-4-(4,6-dimethoxy-5-pyrimidinyl)-4H-1,2,4-triazol-3-yl)-1-methoxy-2-propanesulfonamide or (1R,2S)-1-(5-chloro-2-pyrimidinyl)-N-(5-(trans-4-(difluoromethyl)cyclohexyl)-4-(4,6-dimethoxy-5-pyrimidinyl)-4H-1,2,4-triazol-3-yl)-1-methoxy-2-propanesulfonamide] the EC50 was 4.8 nM.
Molecule COc1ncnc(OC)c1-n1c(NS(=O)(=O)[C@@H](C)[C@H](OC)c2ncc(Cl)cn2)nnc1C1CC1 [Example 24.0, (1R,2S)-1-(5-chloropyrimidin-2-yl)-N-(5-cyclopropyl-4-(4,6-dimethoxypyrimidin-5-yl)-4H-1,2,4-triazol-3-yl)-1-methoxypropane-2-sulfonamide] has an EC50 of 11 nM.
